Results reported in patent US8889854B2, “C-17 bicyclic amines of triterpenoids with HIV maturation inhibitory activity” (priority 2012, dated 2014).

System: recombinant NL4-3 virus (Renilla luciferase in nef, Gag P373S; NLRluc)
Test: HIV Cell Culture Assay (luciferase reporter virus in MT-2 cells)
Format: cell-based
Conditions: luciferase activity
Procedure: MT-2 cells and 293T cells were obtained from the NIH AIDS Research and Reference Reagent Program. MT-2 cells were propagated in RPMI 1640 media supplemented with 10% heat inactivated fetal bovine serum, […]. The 293T cells were propagated in DMEM media supplemented with 10% heat inactivated fetal bovine serum (FBS), 100 units/mL penicillin G and 100 μg/mL streptomycin. The proviral DNA clone of NL4-3 was obtained from the NIH AIDS Research and Reference Reagent Program. A recombinant NL4-3 virus, in which a section of the nef gene from NL4-3 was replaced with the Renilla luciferase gene, was used as a reference virus. In addition, residue Gag P373 was converted to P373S. Briefly, the recombinant virus was prepared by transfection of the altered proviral clone of NL4-3. Transfections were performed in 293T cells using LipofectAMINE PLUS from Invitrogen (Carlsbad, Calif.), according to manufacturer's instruction. The virus was titered in MT-2 cells using luciferase enzyme activity as a marker. Luciferase was quantitated using the Dual Luciferase kit from Promega (Madison, Wis.), with modifications to the manufacturer's protocol. The diluted Passive Lysis solution was pre-mixed with the re-suspended Luciferase Assay Reagent and the re-suspended Stop & Glo Substrate (2:1:1 ratio). Fifty (50) μL of the mixture was added to each aspirated well on assay plates and luciferase activity was measured immediately on a Wallac TriLux (Perkin-Elmer). Antiviral activities of inhibitors toward the recombinant virus were quantified by measuring luciferase activity in cells infected for 4-5 days with NLRluc recombinants in the presence serial dilutions of the inhibitor. Table 1 is the key for the data in Table 2.

[1] = Renilla, NL43, MT-2 cells infected for 4-5 days with NLRluc recombinants
[2] = Renilla, NL43, MT-2 cells infected for 4-5 days with NLRluc recombinants, reported as group A/B

Compound	EC50 [1] [nM]	EC50 [2] [nM]	further results
C=C(C)[C@@H]1CC[C@]2(NCCN3C[C@@H]4C[C@H]3CO4)CC[C@]3(C)[C@H](CC[C@@H]4[C@@]5(C)CC=C(C6=CC7C(C6)C7C(=O)O)C(C)(C)[C@@H]5CC[C@]43C)[C@@H]12 (single isomer, unassigned) [Example B6]	1.42	–	–
C=C(C)[C@@H]1CC[C@]2(NCCN3[C@@H]4CCC[C@H]3COC4)CC[C@]3(C)[C@H](CC[C@@H]4[C@@]5(C)CC=C(c6ccc(C(=O)O)cc6)C(C)(C)[C@@H]5CC[C@]43C)[C@@H]12 [Example A1, 4-((1R,3aS,5aR,5bR,7aR,11aS,11bR,13aR,13bR)-3a-((2-((1R,5S)-3-oxa-9-azabicyclo[3.3.1]nonan-9-yl)ethyl)amino)-5a,5b,8,8,11a-pentamethyl-1-(prop-1-en-2-yl)-2,3,3a,4,5,5a,5b,6,7,7a,8,11,11a,11b,12,13,13a,13b-octadecahydro-1H-cyclopenta[a]chrysen-9-yl)benzoic acid]	30	–	–
C=C(C)[C@@H]1CC[C@]2(NCCN3C[C@@H]4C[C@H]3CN4)CC[C@]3(C)[C@H](CC[C@@H]4[C@@]5(C)CC=C(c6ccc(C(=O)O)cc6)C(C)(C)[C@@H]5CC[C@]43C)[C@@H]12 [Example 10, 4-((1R,3aS,5aR,5bR,7aR,11aS,11bR,13aR,13bR)-3a-((2-((1S,4S)-2,5-diazabicyclo[2.2.1]heptan-2-yl)ethyl)amino)-5a,5b,8,8,11a-pentamethyl-1-(prop-1-en-2-yl)-2,3,3a,4,5,5a,5b,6,7,7a,8,11,11a,11b,12,13,13a,13b-octadecahydro-1H-cyclopenta[a]chrysen-9-yl)benzoic acid]	1.21	–	–
C=C(C)[C@@H]1CC[C@]2(NCCN3CC4CC3CO4)CC[C@]3(C)[C@H](CC[C@@H]4[C@@]5(C)CC=C(C6=CCC(C(=O)O)CC6)C(C)(C)[C@@H]5CC[C@]43C)[C@@H]12 (stereo partly drawn) [Example B1, 4-((1R,3aS,5aR,5bR,7aR,11aS,11bR,13aR,13bR)-3a-((2-(2-oxa-5-azabicyclo[2.2.1]heptan-5-yl)ethyl)amino)-5a,5b,8,8,11a-pentamethyl-1-(prop-1-en-2-yl)-2,3,3a,4,5,5a,5b,6,7,7a,8,11,11a,11b,12,13,13a,13b-octadecahydro-1H-cyclopenta[a]chrysen-9-yl)cyclohex-3-enecarboxylic acid]	–	< 100	–
C=C(C)[C@@H]1CC[C@]2(NCCN3CCC4(C3)CN(S(C)(=O)=O)C4)CC[C@]3(C)[C@H](CC[C@@H]4[C@@]5(C)CC=C(c6ccc(C(=O)O)cc6)C(C)(C)[C@@H]5CC[C@]43C)[C@@H]12 [Example 15, 4-((1R,3aS,5aR,5bR,7aR,11aS,11bR,13aR,13bR)-5a,5b,8,8,11a-pentamethyl-3a-((2-(2-(methylsulfonyl)-2,6-diazaspiro[3.4]octan-6-yl)ethyl)amino)-1-(prop-1-en-2-yl)-2,3,3a,4,5,5a,5b,6,7,7a,8,11,11a,11b,12,13,13a,13b-octadecahydro-1H-cyclopenta[a]chrysen-9-yl)benzoic acid]	1.65	–	–
C=C(C)[C@@H]1CC[C@]2(NC(=O)CN3C[C@@H]4CC[C@H]3C4)CC[C@]3(C)[C@H](CC[C@@H]4[C@@]5(C)CC=C(c6ccc(C(=O)O)cc6)C(C)(C)[C@@H]5CC[C@]43C)[C@@H]12 [Example 1, 4-((1R,3aS,5aR,5bR,7aR,11aS,11bR,13aR,13bR)-3a-(2-((1S,4R)-2-azabicyclo[2.2.1]heptan-2-yl)acetamido)-5a,5b,8,8,11a-pentamethyl-1-(prop-1-en-2-yl)-2,3,3a,4,5,5a,5b,6,7,7a,8,11,11a,11b,12,13,13a,13b-octadecahydro-1H-cyclopenta[a]chrysen-9-yl)benzoic acid]	3.65	–	–
CC(C)[C@@H]1CC[C@]2(NCCN3C[C@@H]4C[C@H]3CN4S(C)(=O)=O)CC[C@]3(C)[C@H](CC[C@@H]4[C@@]5(C)CC=C(c6ccc(C(=O)O)cc6)C(C)(C)[C@@H]5CC[C@]43C)[C@@H]12 [Example 12, 4-((1S,3aS,5aR,5bR,7aR,11aS,11bR,13aR,13bR)-1-isopropyl-5a,5b,8,8,11a-pentamethyl-3a-((2-((1S,4S)-5-(methylsulfonyl)-2,5-diazabicyclo[2.2.1]heptan-2-yl)ethyl)amino)-2,3,3a,4,5,5a,5b,6,7,7a,8,11,11a,11b,12,13,13a,13b-octadecahydro-1H-cyclopenta[a]chrysen-9-yl)benzoic acid]	–	< 100	–
C=C(C)[C@@H]1CC[C@]2(NCCN3C[C@@H]4C[C@H]3CS4(=O)=O)CC[C@]3(C)[C@H](CC[C@@H]4[C@@]5(C)CC=C(C6=CC[C@H](C(=O)O)CC6)C(C)(C)[C@@H]5CC[C@]43C)[C@@H]12 [Example B11, (R)-4-((1R,3aS,5aR,5bR,7aR,11aS,11bR,13aR,13bR)-3a-((2-((1S,4S)-2,2-dioxido-2-thia-5-azabicyclo[2.2.1]heptan-5-yl)ethyl)amino)-5a,5b,8,8,11a-pentamethyl-1-(prop-1-en-2-yl)-2,3,3a,4,5,5a,5b,6,7,7a,8,11,11a,11b,12,13,13a,13b-octadecahydro-1H-cyclopenta[a]chrysen-9-yl)cyclohex-3-enecarboxylic acid]	–	< 100	–
C=C(C)[C@@H]1CC[C@]2(NCCN3C[C@@H]4C[C@H]3CS4(=O)=O)CC[C@]3(C)[C@H](CC[C@@H]4[C@@]5(C)CC=C(c6ccc(C(=O)O)cc6)C(C)(C)[C@@H]5CC[C@]43C)[C@@H]12 [Example 5, 4-((1R,3aS,5aR,5bR,7aR,11aS,11bR,13aR,13bR)-3a-((2-((1S,4S)-2,2-dioxido-2-thia-5-azabicyclo[2.2.1]heptan-5-yl)ethyl)amino)-5a,5b,8,8,11a-pentamethyl-1-(prop-1-en-2-yl)-2,3,3a,4,5,5a,5b,6,7,7a,8,11,11a,11b,12,13,13a,13b-octadecahydro-1H-cyclopenta[a]chrysen-9-yl)benzoic acid]	–	< 100	–
C=C(C)[C@@H]1CC[C@]2(NCCN3C[C@@H]4C[C@H]3CN4Cc3ccccc3)CC[C@]3(C)[C@H](CC[C@@H]4[C@@]5(C)CC=C(c6ccc(C(=O)O)cc6)C(C)(C)[C@@H]5CC[C@]43C)[C@@H]12 [Example 9, 4-((1R,3aS,5aR,5bR,7aR,11aS,11bR,13aR,13bR)-3a-((2-((1S,4S)-5-benzyl-2,5-diazabicyclo[2.2.1]heptan-2-yl)ethyl)amino)-5a,5b,8,8,11a-pentamethyl-1-(prop-1-en-2-yl)-2,3,3a,4,5,5a,5b,6,7,7a,8,11,11a,11b,12,13,13a,13b-octadecahydro-1H-cyclopenta[a]chrysen-9-yl)benzoic acid]	6.09	–	–
C=C(C)[C@@H]1CC[C@]2(NCCN3C[C@H]4C[C@@H]3CS4(=O)=O)CC[C@]3(C)[C@H](CC[C@@H]4[C@@]5(C)CC=C(C6=CC7C(C6)C7C(=O)O)C(C)(C)[C@@H]5CC[C@]43C)[C@@H]12 (single isomer, unassigned) [Example B4]	–	< 100	–
CC(C)[C@@H]1CC[C@]2(NCCN3C[C@@H]4C[C@H]3CO4)CC[C@]3(C)[C@H](CC[C@@H]4[C@@]5(C)CC=C(c6ccc(C(=O)O)cc6)C(C)(C)[C@@H]5CC[C@]43C)[C@@H]12 [Example 8, 4-((1S,3aS,5aR,5bR,7aR,11aS,11bR,13aR,13bR)-3a-((2-((1S,4S)-2-oxa-5-azabicyclo[2.2.1]heptan-5-yl)ethyl)amino)-1-isopropyl-5a,5b,8,8,11a-pentamethyl-2,3,3a,4,5,5a,5b,6,7,7a,8,11,11a,11b,12,13,13a,13b-octadecahydro-1H-cyclopenta[a]chrysen-9-yl)benzoic acid]	–	< 100	–
C=C(C)[C@@H]1CC[C@]2(NCCN3CCC4(CC3)COC4)CC[C@]3(C)[C@H](CC[C@@H]4[C@@]5(C)CC=C(c6ccc(C(=O)O)cc6)C(C)(C)[C@@H]5CC[C@]43C)[C@@H]12 [Example B3]	3.82	–	–
C=C(C)[C@@H]1CC[C@]2(NCCN3C4CCC3CC(C)(O)C4)CC[C@]3(C)[C@H](CC[C@@H]4[C@@]5(C)CC=C(c6ccc(C(=O)O)cc6)C(C)(C)[C@@H]5CC[C@]43C)[C@@H]12 (stereo partly drawn) [Example A4, 4-((1R,3aS,5aR,5bR,7aR,11aS,11bR,13aR,13bR)-3a-((2-((1R,3S,5S)-3-hydroxy-3-methyl-8-azabicyclo[3.2.1]octan-8-yl)ethyl)amino)-5a,5b,8,8,11a-pentamethyl-1-(prop-1-en-2-yl)-2,3,3a,4,5,5a,5b,6,7,7a,8,11,11a,11b,12,13,13a,13b-octadecahydro-1H-cyclopenta[a]chrysen-9-yl)benzoic acid]	8.8	–	–
C=C(C)[C@@H]1CC[C@]2(NCCN3C[C@H]4C[C@@H]3CS4(=O)=O)CC[C@]3(C)[C@H](CC[C@@H]4[C@@]5(C)CC=C(C6=CC7C(C6)C7C(=O)O)C(C)(C)[C@@H]5CC[C@]43C)[C@@H]12 (single isomer, unassigned) [Example B5]	–	–	EC50 (MT-2 cells infected for 4-5 days with NLRluc recombinants, reported as group A/B): < 100 nM
